Results taken from paper PMC3157426 (PLoS ONE, 2011).
pIC50: −log10 of the molar value. “Also recorded” adds a separate entry of the source. Like-named read-outs stand apart in the source and are kept apart here.

Columns and labels:
[1] = biological target: B/Perth/211/01 D197E mutant NA (Influenza B virus, UniProt Q3S340, D197E); type: biochemical, influenza B virus B/Perth/211/01
[2] = biological target: A/Mississippi/03/01 H1N1 H274Y mutant NA (Influenza A virus, UniProt Q289M4, H275Y); type: biochemical, influenza virus A/Mississippi/03/01 H1N1
[3] = biological target: A/Fukui/45/04 H3N2 E119V mutant NA (Influenza A virus, UniProt C0IZY2, E119V); type: biochemical, influenza virus A/Fukui/45/04 H3N2
[4] = read-out: IC50 at 10 min, 30' Pre
[5] = read-out: IC50 at 10 min, No pre
[6] = read-out: final IC50 after 60 min, 30' pre
[7] = read-out: final IC50 after 60 min, No pre

Compound	binding phenotype (slow or fast binding) [1]	binding phenotype (slow or fast binding) [2]	binding phenotype (slow or fast binding) [3]	pIC50 [2, 4]	pIC50 [2, 5]	pIC50 [2, 6]	pIC50 [2, 7]	pIC50 [3, 4]	pIC50 [3, 5]	pIC50 [3, 6]	pIC50 [3, 7]	further results
CC(=O)N[C@H]1[C@H]([C@H](O)[C@H](O)CO)OC(C(=O)O)=C[C@@H]1O [DANA, 2-deoxy,2,3-dehydro N-acetyl neuraminic acid]	fast binding	fast binding	fast binding	–	–	–	–	–	–	–	–	susceptibility compared to the wild type virus [1]: Some reduced susceptibility
CCC(CC)[C@H](NC(C)=O)[C@@H]1[C@H](O)[C@@H](C(=O)O)C[C@H]1N=C(N)N [Peramivir, peramivir]	loss of slow binding	loss of slow binding	–	7.00	6.89	6.82	6.71	8.85	6.81	8.68	7.67	10'/60 (ratio of IC50s), No pre [1]: 2.5; No pre/pre (ratio of 60 min IC50s) [1]: 1.8; pIC50 [1, 4]: 8.41; pIC50 [1, 5]: 6.73; pIC50 [1, 6]: 7.38; pIC50 [1, 7]: 7.12; 10'/60 (ratio of IC50s), No pre [2]: 0.7; 60'/10 (ratio of IC50s), 30' Pre [2]: 1.5; No pre/pre (ratio of 60 min IC50s) [2]: 1.3; 10'/60 (ratio of IC50s), No pre [3]: 7.2; 60'/10 (ratio of IC50s), 30' Pre [3]: 1.5; No pre/pre (ratio of 60 min IC50s) [3]: 10.2
CC(=O)N[C@H]1[C@H]([C@H](O)[C@H](O)CO)OC(C(=O)O)=C[C@@H]1N=C(N)N [Zanamivir, zanamivir]	–	no impact on the binding kinetics	slow binding phenotype	–	–	–	–	–	–	–	–	–
oseltamivir carboxylate	–	loss of slow binding	fast binding; also recorded: loss of slow binding	5.80	5.72	5.61	5.63	6.91	6.75	6.59	6.68	–
